Results published in patent publication US7425556B2 (priority 2005, dated 2008).

Assays:
[1] = molecular target: human Melatonin receptor 1 (MT1) (Homo sapiens, UniProt P48039); test: biochemical; conditions: for Emax: read-out: MT1 Receptor GTPgS Emax; for MT1 Receptor GTPgS Emax: efficacy, 100% effect = 3 nM 2-Iodomelatonin, 0% = vehicle; for EC50: hMT1/HEK293F membranes, agonist potency, read-out: MT1 Receptor GTPgS EC50
Method: Method II MT1 GTPγ^35S-SPA Assay Test Validation Standards
Test compounds were synthesized in house. […] 2 μl of diluted compounds were transferred to Optic-assay-plates.
(Freshly add protease inhibitor cocktail tables from Roche). […] The protein concentration of the membrane was determined. The membranes were aliquoted and stored at −80° C.
• MAX response (100% effect) was determined as the effect of 3 nM of 2-lodomelatonin. • MIN response (0% effect) was determined as the effect of vehicle control. Description of Experimental Procedure
The final concentration of GTPγ^35S was 200 pM.

MT1 Receptor = MT1 Receptor (Homo sapiens, UniProt P48039); test: biochemical; type: binding; conditions: for Ki: read-out: MT1 Receptor Binding Ki
MT1 Receptor, sequence (P48039 whole entry): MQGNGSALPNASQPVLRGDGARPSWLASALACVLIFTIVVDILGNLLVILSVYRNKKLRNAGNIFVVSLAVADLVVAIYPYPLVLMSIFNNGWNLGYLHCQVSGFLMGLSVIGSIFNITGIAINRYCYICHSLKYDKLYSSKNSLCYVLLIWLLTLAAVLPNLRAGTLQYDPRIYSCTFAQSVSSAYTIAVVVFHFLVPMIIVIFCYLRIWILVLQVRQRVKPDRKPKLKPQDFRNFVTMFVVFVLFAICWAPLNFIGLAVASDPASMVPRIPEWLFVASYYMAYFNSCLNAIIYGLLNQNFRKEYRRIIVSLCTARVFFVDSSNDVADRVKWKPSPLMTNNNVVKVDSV

[2] = molecular target: T1, GABAA1 (human α1β2γ2 GABAA receptor) (Homo sapiens, UniProt P14867+P18507); test: Two-electrode voltage-clamp in Xenopus oocytes, potentiation of GABA EC10 current, GABAA1; type: cell-based; conditions: percentage potentiation of GABA EC10 current divided by that of diazepam
T1 construct: expressed in transfected cells; host or cells: Xenopus laevis oocytes injected with capped cRNA
T1 sequence (P14867 28-456): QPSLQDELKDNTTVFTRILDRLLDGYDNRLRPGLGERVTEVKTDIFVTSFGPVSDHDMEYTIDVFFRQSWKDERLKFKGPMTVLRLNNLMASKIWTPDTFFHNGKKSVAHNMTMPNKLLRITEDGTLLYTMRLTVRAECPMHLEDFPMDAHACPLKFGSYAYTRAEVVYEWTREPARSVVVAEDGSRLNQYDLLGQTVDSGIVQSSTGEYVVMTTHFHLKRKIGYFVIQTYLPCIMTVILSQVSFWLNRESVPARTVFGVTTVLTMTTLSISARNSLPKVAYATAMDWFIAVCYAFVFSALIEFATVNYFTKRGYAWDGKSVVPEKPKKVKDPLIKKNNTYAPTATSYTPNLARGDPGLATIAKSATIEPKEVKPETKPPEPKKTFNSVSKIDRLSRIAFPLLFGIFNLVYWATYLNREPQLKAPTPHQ
T1 sequence (P47870 25-512 partner limits assumed): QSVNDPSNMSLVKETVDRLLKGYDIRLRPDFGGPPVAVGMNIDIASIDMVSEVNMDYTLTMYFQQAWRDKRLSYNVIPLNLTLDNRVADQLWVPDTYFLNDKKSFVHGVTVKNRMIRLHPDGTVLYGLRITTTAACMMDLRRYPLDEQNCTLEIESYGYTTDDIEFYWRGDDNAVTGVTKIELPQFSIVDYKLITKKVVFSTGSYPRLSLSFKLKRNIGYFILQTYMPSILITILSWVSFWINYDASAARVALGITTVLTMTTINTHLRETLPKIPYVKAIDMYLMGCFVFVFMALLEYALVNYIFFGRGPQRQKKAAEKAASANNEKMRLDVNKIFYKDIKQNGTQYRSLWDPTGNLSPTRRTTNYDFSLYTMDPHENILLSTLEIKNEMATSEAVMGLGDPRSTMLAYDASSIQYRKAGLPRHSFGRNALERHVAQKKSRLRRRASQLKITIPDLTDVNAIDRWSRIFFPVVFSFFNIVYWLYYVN
T1 sequence (P18507 40-475): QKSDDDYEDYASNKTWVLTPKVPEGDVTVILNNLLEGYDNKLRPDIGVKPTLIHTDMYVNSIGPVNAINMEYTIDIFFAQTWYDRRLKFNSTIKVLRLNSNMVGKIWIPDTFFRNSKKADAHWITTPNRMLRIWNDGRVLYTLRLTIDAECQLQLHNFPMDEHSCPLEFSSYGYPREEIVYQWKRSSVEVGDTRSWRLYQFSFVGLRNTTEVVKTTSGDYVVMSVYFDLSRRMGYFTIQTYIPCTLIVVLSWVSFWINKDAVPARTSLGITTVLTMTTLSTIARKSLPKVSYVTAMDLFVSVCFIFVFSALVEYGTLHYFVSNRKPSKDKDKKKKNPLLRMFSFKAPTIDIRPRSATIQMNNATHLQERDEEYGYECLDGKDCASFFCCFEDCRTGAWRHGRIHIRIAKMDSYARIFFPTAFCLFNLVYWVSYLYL

[3] = molecular target: T2, GABAA2 receptors (α2, β3, γ2 receptor subunits) (Homo sapiens, UniProt P18507+P47869); test: biochemical; conditions: [3H]-Flunitrazepam ~2 nM, α2β3γ2 Sf9 membranes, 1 hr at 4° C.; read-out: GABAA2 Binding Ki
T2 construct: host or cells: Sf9 cells (membranes)
T2 sequence (P47869 29-451): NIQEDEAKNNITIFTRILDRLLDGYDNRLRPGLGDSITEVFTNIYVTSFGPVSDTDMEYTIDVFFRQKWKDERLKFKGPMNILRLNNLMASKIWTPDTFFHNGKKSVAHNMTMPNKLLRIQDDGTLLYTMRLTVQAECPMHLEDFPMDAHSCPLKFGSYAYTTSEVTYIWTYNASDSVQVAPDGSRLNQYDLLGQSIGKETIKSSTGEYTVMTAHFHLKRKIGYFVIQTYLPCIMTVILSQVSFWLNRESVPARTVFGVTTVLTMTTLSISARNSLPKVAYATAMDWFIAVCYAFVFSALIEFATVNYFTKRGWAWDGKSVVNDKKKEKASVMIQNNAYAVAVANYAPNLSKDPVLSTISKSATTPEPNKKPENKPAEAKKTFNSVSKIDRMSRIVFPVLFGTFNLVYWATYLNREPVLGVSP
T2 sequence (P28472 26-473 partner): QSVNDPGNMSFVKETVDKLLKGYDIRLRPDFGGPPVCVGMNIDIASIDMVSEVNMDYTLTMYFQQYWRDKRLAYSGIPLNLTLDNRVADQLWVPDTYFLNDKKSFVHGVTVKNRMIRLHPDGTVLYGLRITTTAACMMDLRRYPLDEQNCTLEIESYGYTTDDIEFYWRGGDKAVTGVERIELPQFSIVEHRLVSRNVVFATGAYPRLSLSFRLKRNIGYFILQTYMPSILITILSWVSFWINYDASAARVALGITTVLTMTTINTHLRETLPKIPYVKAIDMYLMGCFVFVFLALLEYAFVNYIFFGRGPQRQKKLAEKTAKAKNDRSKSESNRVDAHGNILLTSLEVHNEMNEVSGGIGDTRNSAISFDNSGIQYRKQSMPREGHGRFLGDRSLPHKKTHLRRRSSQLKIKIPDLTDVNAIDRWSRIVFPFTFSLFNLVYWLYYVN
T2 sequence (P18507 40-475): as the sequence (P18507 40-475) above

[4] = molecular target: T3, GABAA2 (human α2β3γ2 GABAA receptor) (Homo sapiens, UniProt P18507+P47869); test: Two-electrode voltage-clamp in Xenopus oocytes, potentiation of GABA EC10 current, GABAA2; type: cell-based; conditions: percentage potentiation of GABA EC10 current divided by that of diazepam
T3 construct: expressed in transfected cells; host or cells: Xenopus laevis oocytes injected with capped cRNA
T3 sequence (P47869 29-451): as the sequence (P47869 29-451) above
T3 sequence (P28472 26-473 partner): as the sequence (P28472 26-473 partner) above
T3 sequence (P18507 40-475): as the sequence (P18507 40-475) above

human Melatonin receptor 1 (MT1), sequence (P48039 whole entry): as the sequence (P48039 whole entry) above

CCCNC(=O)c1nnc2c(-c3cc(C)ccc3OC)cccc2c1N
Emax [1]: 61%

CCCNC(=O)c1nnc2c(-c3cc(OC)ccc3OC)cccc2c1N [drawing 417]
MT1 Receptor GTPgS Emax [1]: 100
EC50 [1]: 37.5 nM
MT1 Receptor Binding % Inhibition at 1 μM (MT1 Receptor; at 1 μM): 86%
Ki (MT1 Receptor): 60 nM

CCCNC(=O)c1nnc2c(-c3cc(OC)ccc3OC)cccc2c1N [drawing 421]
MT1 Receptor GTPgS Emax [1]: 61
EC50 [1]: 26.7 nM
inhibition at 1 µM (MT1 Receptor; at 1 μM, read-out: MT1 Receptor Binding % Inhibition at 1 μM): 91%
Ki (MT1 Receptor): 36 nM

CCCNC(=O)c1nnc2c(-c3cc(OC)ccc3OC)c(F)ccc2c1N
EC50 [1]: 23.6 nM
Emax [1]: 64%
Ki (MT1 Receptor): 31 nM

CCCNC(=O)c1nnc2c(-c3cnccc3OC)cccc2c1N
Emax [1]: 64%

CCCNC(=O)c1nnc2c(-c3cnc(OC)nc3OC)cccc2c1N
Emax [1]: 70%

CCCNC(=O)c1nnc2c(-c3cc(OC)c(OC)c(OC)c3)cccc2c1N
Relative Potentiation for GABAA1 [2]: 0.4
Ki [3]: 56.5 nM
Relative Potentiation for GABAA2 [4]: 0.67

CCCNC(=O)c1nnc2c(-c3cc(F)cc(F)c3OC)c(F)ccc2c1N
Relative Potentiation for GABAA1 [2]: 0.1
Ki [3]: 5.78 nM
Relative Potentiation for GABAA2 [4]: 0.14

CCCNC(=O)c1nnc2c(-c3cc(C)c(OC)c(C)c3)cccc2c1N
Relative Potentiation for GABAA1 [2]: 0.79
Ki [3]: 35.8 nM
Relative Potentiation for GABAA2 [4]: 0.32

CCCNC(=O)c1nnc2c(-c3cc(F)ccc3C)cccc2c1N
Relative Potentiation for GABAA1 [2]: 0.02
Ki [3]: 5.56 nM
Relative Potentiation for GABAA2 [4]: 0.22

CCCNC(=O)c1nnc2c(-c3ccc(C)c(C)c3)cccc2c1N
Relative Potentiation for GABAA1 [2]: 0.23
Ki [3]: 16.8 nM
Relative Potentiation for GABAA2 [4]: 0.35

CCCNC(=O)c1nnc2c(-c3cnc(OC)c(Cl)c3)cccc2c1N
Relative Potentiation for GABAA1 [2]: 0.086
Ki [3]: 25.4 nM
Relative Potentiation for GABAA2 [4]: 0.04
